# “And” between values parts separate entries of the source, which are not always exact repeats. Equal values may be shown once.
# Columns and labels:
# cane toads [1] = experiment: Trial 1 two-step test: ethanol anaesthesia, then pesticidal agent applied to dorsal surface; type: in vivo, Bufo marinus
# Procedure: Testing of the efficacy of various compositions for the purpose of cane toad extermination was conducted in two trials. The first trial comprised a “two-step” test in which subject toads were initially exposed to an anaesthetic agent and, once anaesthetised, exposed to a pesticidal agent (i.e. killing agent) in the presence of a suitable carrier. This two-step approach was undertaken to ensure the humane extermination of the animals.
# Subject animals were therefore exposed to an approximate total dose of 3-4 ml of materials, comprising 2-3 gm of an anaesthetising agent (i.e. ethanol) and up to 1.0 ml of the particular pesticidal agent to be tested. A mist of ethanol was applied (“primary treatment”) to the dorsal surface of the toad from a hand-held spray bottle. When the toad was stupefied, as judged by the inability of the animal to right itself onto its ventral surface when turned onto its back (generally 10-15 minutes after treatment), the test pesticidal agent was administered (“secondary treatment”) onto the animal's dorsal surface by means of a micropipette. The test pesticidal agent included chloroxylenol (i.e. 4-chloro 3,5-dimethyl phenol) in different carriers including ethanol, isopropanol, propanol and dilute solutions thereof. Animals were monitored continuously for their response to the treatment.
# cane toads [2] = system: cane toads
# cane toads [3] = experiment: Trial 2 single spray application of test pesticidal compositions; type: in vivo, Bufo marinus
# Source text: The tests conducted in the second trial involved a single spray application of various test pesticidal compositions on cane toads. A hand-operated spray bottle was used to deliver a single standard dose of 3.0-3.3 gm of the particular test pesticidal agent to the dorsal surface of each animal. Animals were subsequently continuously monitored for their response to the treatment.
# [4] = primary 100% ethanol 2.1-2.9 ml, secondary 5% chloroxylenol in 40% isopropanol/60% water, 1.0 ml, medium toads (90.0-139.9 gm)
# [5] = primary 100% ethanol 2.1-2.9 ml, secondary 5% chloroxylenol in 40% isopropanol/60% water, 1.0 ml, small toads (45.0-89.9 gm)
# [6] = primary 100% ethanol 2.1-2.9 ml, secondary 30% chloroxylenol in ethanol, 0.2 ml, small toads (45.0-89.9 gm)
# [7] = primary 100% ethanol 2.1-2.9 ml, secondary 30% chloroxylenol in ethanol, 0.5 ml, small toads (45.0-89.9 gm)
# [8] = primary 100% ethanol 2.1 ml, secondary 15% chloroxylenol in 60% isopropanol/40% water, 1.0 ml, small toads (45.0-89.9 gm)
# [9] = large toads (≧140 gm), carrier 40% ethanol with 60% isopropanol, chloroxylenol content 3.75%
# [10] = large toads (≧140 gm), carrier 40% ethanol with 60% isopropanol, chloroxylenol content 5.00%
# [11] = large toads (≧140 gm), carrier 60% ethanol with 40% isopropanol, chloroxylenol content 5.00%
# [12] = large toads (≧140 gm), carrier 70% ethanol with 30% isopropanol, chloroxylenol content 2.00%
# [13] = large toads (≧140 gm), carrier 70% ethanol with 30% isopropanol, chloroxylenol content 2.50%
# [14] = large toads (≧140 gm), carrier 80% ethanol with 20% isopropanol, chloroxylenol content 2.50%
# [15] = large toads (≧140 gm), carrier 80% ethanol with 20% isopropanol, chloroxylenol content 3.75%
# [16] = large toads (≧140 gm), carrier 80% ethanol with 20% isopropanol, chloroxylenol content 5.00%
# [17] = medium size toads (90.0-139.9 gm), carrier 40% ethanol with 60% isopropanol, chloroxylenol content 3.75%
# [18] = medium size toads (90.0-139.9 gm), carrier 40% ethanol with 60% isopropanol, chloroxylenol content 5.00%
# [19] = medium size toads (90.0-139.9 gm), carrier 60% ethanol with 40% isopropanol, chloroxylenol content 5.00%
# [20] = medium size toads (90.0-139.9 gm), carrier 70% ethanol with 30% isopropanol, chloroxylenol content 2.00%
# [21] = medium size toads (90.0-139.9 gm), carrier 70% ethanol with 30% isopropanol, chloroxylenol content 2.50%
# [22] = medium size toads (90.0-139.9 gm), carrier 80% ethanol with 20% isopropanol, chloroxylenol content 2.50%
# [23] = medium size toads (90.0-139.9 gm), carrier 80% ethanol with 20% isopropanol, chloroxylenol content 3.75%
# [24] = medium size toads (90.0-139.9 gm), carrier 80% ethanol with 20% isopropanol, chloroxylenol content 5.00%
# [25] = pooled chloroxylenol concentrations and ethanol/propanol carriers (FIGS. 1 and 2)
# [26] = small toads (45.0-89.9 gm), carrier 60% ethanol with 40% isopropanol, chloroxylenol content 2.50%
# [27] = small toads (45.0-89.9 gm), carrier 60% ethanol with 40% isopropanol, chloroxylenol content 3.75%
# [28] = small toads (45.0-89.9 gm), carrier 60% ethanol with 40% isopropanol, chloroxylenol content 5.00%
# [29] = small toads (45.0-89.9 gm), carrier 70% ethanol in water, chloroxylenol content 2.50%
# [30] = small toads (45.0-89.9 gm), carrier 70% ethanol with 30% isopropanol, chloroxylenol content 2.50%
# [31] = small toads (45.0-89.9 gm), carrier 70% ethanol with 30% isopropanol, chloroxylenol content 3.75%
# [32] = small toads (45.0-89.9 gm), carrier 70% ethanol with 30% isopropanol, chloroxylenol content 5.00%
# [33] = small toads (45.0-89.9 gm), carrier 70% ethanol with 30% methanol, chloroxylenol content 2.50%
# [34] = small toads (45.0-89.9 gm), carrier 80% ethanol with 20% isopropanol, chloroxylenol content 2.50%
# [35] = small toads (45.0-89.9 gm), carrier 80% ethanol with 20% isopropanol, chloroxylenol content 3.75%
# [36] = small toads (45.0-89.9 gm), carrier 80% ethanol with 20% isopropanol, chloroxylenol content 5.00%
# [37] = small toads (45.0-89.9 gm), carrier 98% ethanol with 2% citral, chloroxylenol content 2.50%
# [38] = small toads (45.0-89.9 gm), carrier 100% ethanol, chloroxylenol content 0.50%, spray 3.0-3.3 gm
# [39] = small toads (45.0-89.9 gm), carrier 100% ethanol, chloroxylenol content 2.50%
# [40] = small toads (45.0-89.9 gm), carrier 100% ethanol, chloroxylenol content 5.00%
smiles,measurement,setting,value
CCO [ethanol],"lag period before onset of anaesthesia (toad stupefied, unable to right itself)","cane toads [1]; mist of ethanol on dorsal surface, 2-3 gm",10 to 15 min
same,anaesthetic effect of topical application,cane toads [2]; toads of all sizes,rapid- and long-acting anaesthetic
same,lethality of ethanol alone,cane toads [2]; very small toads = less than about 45 gm,death only in some (but not all) very small toads
"Cc1cc(O)cc(C)c1Cl [chloroxylenol, 4-chloro 3,5-dimethyl phenol]",ethanol-anaesthetised toads exterminated,"cane toads [1]; chloroxylenol in carriers (ethanol alone or dilutions of propanol), all toads treated (12)",12
same,mean time to death,cane toads [1]; [4],28 min
same,number died/number tested,cane toads [1]; [4],1/1
same,mean time to death,cane toads [1]; [5],30 min
same,number died/number tested,cane toads [1]; [5],5/5
same,mean time to death,cane toads [1]; [6],71 min
same,number died/number tested,cane toads [1]; [6],2/2
same,mean time to death,cane toads [1]; [7],64 min
same,number died/number tested,cane toads [1]; [7],2/2
same,mean time to death,cane toads [1]; [8],24 min
same,number died/number tested,cane toads [1]; [8],2/2
same,onset of death,cane toads [1]; two-step tests of Example 1,16 to 102 min
same,predicted time to kill toads of up to 200 gm weight,"cane toads [3]; 2.5% chloroxylenol, from fitted line of FIG. 2",less than 60 minutes
same,large toads killed/treated,cane toads [3]; compositions with 2.5% or more chloroxylenol,31/32
same,medium-sized toads killed,"cane toads [3]; compositions with 2.5% or more chloroxylenol, all toads treated (33)",33
same,mean time to death,cane toads [3]; [9],52 min
same,number died/number tested,cane toads [3]; [9],5/5
same,mean time to death,cane toads [3]; [10],47 min
same,number died/number tested,cane toads [3]; [10],4/4
same,mean time to death,cane toads [3]; [11],39 min
same,number died/number tested,cane toads [3]; [11],7/7
same,number died/number tested,"cane toads [3]; large toads (≧140 gm), carrier 70% ethanol with 30% isopropanol, chloroxylenol content 1.25%",0/7;
same,mean time to death,cane toads [3]; [12],50 min
same,number died/number tested,cane toads [3]; [12],7/7
same,mean time to death,cane toads [3]; [13],60 min
same,number died/number tested,cane toads [3]; [13],7/7
same,mean time to death,cane toads [3]; [14],91 min
same,number died/number tested,cane toads [3]; [14],1/1
same,mean time to death,cane toads [3]; [15],34 min
same,number died/number tested,cane toads [3]; [15],3/4
same,mean time to death,cane toads [3]; [16],53 min
same,number died/number tested,cane toads [3]; [16],4/4
same,mean time to death,cane toads [3]; [17],48 min
same,number died/number tested,cane toads [3]; [17],4/4
same,mean time to death,cane toads [3]; [18],46 min
same,number died/number tested,cane toads [3]; [18],4/4
same,mean time to death,cane toads [3]; [19],28 min
same,number died/number tested,cane toads [3]; [19],7/7
same,mean time to death,cane toads [3]; [20],65 min
same,number died/number tested,cane toads [3]; [20],5/5
same,mean time to death,cane toads [3]; [21],39 min
same,number died/number tested,cane toads [3]; [21],5/5
same,mean time to death,cane toads [3]; [22],37 min
same,number died/number tested,cane toads [3]; [22],5/5
same,mean time to death,cane toads [3]; [23],31 min
same,number died/number tested,cane toads [3]; [23],4/4
same,mean time to death,cane toads [3]; [24],52 min
same,number died/number tested,cane toads [3]; [24],4/4
same,tests in which a lethal outcome was achieved,"cane toads [3]; of 93 in total, three chloroxylenol concentrations in four propanol-ethanol carriers",92
same,large toads died within 40 minutes (number),cane toads [3]; [25],12/32
same,large toads died within 40 minutes (percent),cane toads [3]; [25],37%
same,large toads died within 60 minutes (number),cane toads [3]; [25],23/32
same,large toads died within 60 minutes (percent),cane toads [3]; [25],72%
same,medium toads died within 40 minutes (number),cane toads [3]; [25],25/33
same,medium toads died within 40 minutes (percent),cane toads [3]; [25],75%
same,medium toads died within 60 minutes (number),cane toads [3]; [25],30/33
same,medium toads died within 60 minutes (percent),cane toads [3]; [25],91%
same,small toads killed in <30 minutes (number),cane toads [3]; [25],22/28
same,small toads killed in <30 minutes (percent),cane toads [3]; [25],78%
same,"time to death, all medium sized toads",cane toads [3]; [25],≤ 102 min
same,"time to death, large toads, all but one",cane toads [3]; [25],≤ 120 min
same,"time to death, all small toads","cane toads [3]; pooled: 2.5%, 3.75%, 5% chloroxylenol in four ethanol/propanol carriers (FIGS. 1 and 2)",≤ 40 min
same,mean time to death,cane toads [3]; [26],27 min
same,number died/number tested,cane toads [3]; [26],3/3
same,mean time to death,cane toads [3]; [27],19 min
same,number died/number tested,cane toads [3]; [27],3/3
same,mean time to death,cane toads [3]; [28],21 min
same,number died/number tested,cane toads [3]; [28],5/5
same,mean time to death,cane toads [3]; [29],46 min
same,number died/number tested,cane toads [3]; [29],3/3
same,mean time to death,cane toads [3]; [30],26 min
same,number died/number tested,cane toads [3]; [30],3/3
same,mean time to death,cane toads [3]; [31],26 min
same,number died/number tested,cane toads [3]; [31],3/3
same,mean time to death,cane toads [3]; [32],22 min
same,number died/number tested,cane toads [3]; [32],3/3
same,mean time to death,cane toads [3]; [33],38 min
same,number died/number tested,cane toads [3]; [33],3/3
same,mean time to death,cane toads [3]; [34],25 min
same,number died/number tested,cane toads [3]; [34],2/2
same,mean time to death,cane toads [3]; [35],22 min
same,number died/number tested,cane toads [3]; [35],4/4
same,mean time to death,cane toads [3]; [36],16 min
same,number died/number tested,cane toads [3]; [36],2/2
same,mean time to death,cane toads [3]; [37],25 min
same,number died/number tested,cane toads [3]; [37],all three toads tested were killed and 3/3
same,mean time to death,cane toads [3]; [38],62 min
same,number died/number tested,cane toads [3]; [38],one third and 1/3
same,mean time to death,cane toads [3]; [39],28 min
same,number died/number tested,cane toads [3]; [39],3/3
same,mean time to death,cane toads [3]; [40],22 min
same,number died/number tested,cane toads [3]; [40],3/3
same,mean times to death,"cane toads [3]; small toads, ethanol as sole carrier or mixtures of ethanol and propanol, at least 2.5% chloroxylenol",less than 30 minutes
